{
  "source": "patent EP1080104B1",
  "about": "“CERTAIN HETEROARYL SUBSTITUTED THIOL INHIBITORS OF ENDOTHELIN-CONVERTING ENZYME” (Novartis AG, priority 1998, dated 2005)",
  "key": {"[1]": {"molecular_target": "T1, recombinant human endothelin converting enzyme-1 (rhECE-1) (Homo sapiens, UniProt P42892)", "T1 construct": "made in house; host or cells: Chinese hamster ovary (CHO) cells; 100,000 x g membrane pellet of the homogenate", "T1 sequence (P42892 1-770)": "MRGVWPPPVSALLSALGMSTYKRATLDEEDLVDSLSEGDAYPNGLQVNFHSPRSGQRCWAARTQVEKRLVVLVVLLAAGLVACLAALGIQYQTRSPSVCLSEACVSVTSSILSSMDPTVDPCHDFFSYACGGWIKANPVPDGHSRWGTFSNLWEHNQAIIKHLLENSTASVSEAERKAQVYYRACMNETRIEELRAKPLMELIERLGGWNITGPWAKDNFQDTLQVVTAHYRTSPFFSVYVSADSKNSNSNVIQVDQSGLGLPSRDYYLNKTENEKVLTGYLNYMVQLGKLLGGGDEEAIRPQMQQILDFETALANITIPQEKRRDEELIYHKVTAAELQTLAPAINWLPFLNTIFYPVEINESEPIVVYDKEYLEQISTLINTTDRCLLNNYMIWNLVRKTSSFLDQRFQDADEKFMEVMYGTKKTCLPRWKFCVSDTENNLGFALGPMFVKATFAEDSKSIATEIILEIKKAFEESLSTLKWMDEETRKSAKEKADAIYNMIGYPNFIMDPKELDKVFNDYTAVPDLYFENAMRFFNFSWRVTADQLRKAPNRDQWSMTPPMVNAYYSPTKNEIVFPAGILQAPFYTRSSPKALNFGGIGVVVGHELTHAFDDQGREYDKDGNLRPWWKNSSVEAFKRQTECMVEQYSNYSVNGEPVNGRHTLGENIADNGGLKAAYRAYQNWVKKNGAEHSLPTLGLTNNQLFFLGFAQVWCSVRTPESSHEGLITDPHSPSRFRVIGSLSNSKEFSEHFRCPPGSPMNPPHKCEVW", "test": "in vitro assay for rh-ECE-1 inhibition (radioimmunoassay of ET-1 formed from big ET-1)", "assay_type": "biochemical", "conditions": "membrane preparation from CHO cells, human big ET-1 0.2 µM, 2 h at 37 °C", "procedure": "Cells are harvested by scraping, pelleted by centrifugation, and homogenized at 4 °C in a buffer containing 5 mM MgCl2., 1 µM pepstatin A, 100 µM leupeptin, 1 mM PMSF, and 20 mM Tris, pH 7.0, with a ratio of 2 mL of buffer/mL of cells. The cell debris is removed by brief centrifugation, and the supernatant is centrifuged again at 100,000 x g for 30 minutes. The resulting pellet is resuspended in a buffer containing 200 mM NaCl and 50 mM Tes, pH 7.0, at a protein concentration about 15 mg/mL and stored in aliquots at -80°C.\nTo assess the effect of an inhibitor on ECE-1 activity, 10 µg of protein is preincubated with the compound at a desired concentration for 20 min at room temperature in 50 mM TES, pH 7.0, and 0.005% Triton X-100 in a volume of 10 µL. […]\nDiluted samples (200 µL) obtained from the above enzyme assay are incubated at 4° C overnight with 25 µL each of [^125I]ET-1 (10,000 cpm/tube) and 1:20,000-fold diluted rabbit antibodies that recognize specifically the carboxyl terminal tryptophan of ET-1. […] The supernatant is decanted, and the radioactivity in the pellet is counted in a gamma counter. Total and nonspecific binding are measured in the absence of nonradioactive ET-1 and anti-ET antibodies, respectively.\nIn order to determine the IC50 value of an inhibitor, a concentration-response curve of each inhibitor is determined. […]"}, "[2]": {"molecular_target": "rabbit antibodies that recognize specifically the carboxyl terminal tryptophan of ET-1", "assay_type": "binding", "conditions": "mean ± SEM, n = 3 - 5; 4° C overnight", "procedure": "Diluted samples (200 µL) obtained from the above enzyme assay are incubated at 4° C overnight with 25 µL each of [^125I]ET-1 (10,000 cpm/tube) and 1:20,000-fold diluted rabbit antibodies that recognize specifically the carboxyl terminal tryptophan of ET-1. Goat anti-rabbit antibodies coupled to magnetic beads (70 µg) are then added to each tube, and the reaction mixture is further incubated for 30 min at room temperature. The beads are pelleted using a magnetic rack. The supernatant is decanted, and the radioactivity in the pellet is counted in a gamma counter. Total and nonspecific binding are measured in the absence of nonradioactive ET-1 and anti-ET antibodies, respectively."}},
  "note": "Bridges are numbered along the chain shown (N, C = ends). Where no end group is shown, it is not given here.",
  "data": [
    {"compound": "CC(C)C[C@H](S)C(=O)NC1(C(=O)N[C@@H](Cc2ccc(-c3cccs3)nc2)C(=O)O)CCCC1", "note": "[Example 2(s), 2-{[1-(2-Mercapto-4-methyl-pentanoylamino)-cyclopentanecarbonyl]-amino}-3-[6-(thien-2-yl)-pyridin-3-yl]-propionic acid]", "values": [
      {"measurement": "IC50", "setting": "[1]", "value": "~4", "unit": "nM"}
    ]},
    {"compound": "big ET-1: Human big ET-1, substrate of the ECE-1 assay (CSCSSLMDKECVYFCHLDIIWVNTPEHVVPYGLGSPRS; disulfide 1-15, 3-11; ends not checked; UniProt P05305 53-90, looked up)", "values": [
      {"measurement": "IC50 values (displace [125I]ET-1 binding to the antibodies)", "setting": "[2]", "value": "260,000 ± 66,000 fmol"}
    ]}
  ]
}
